The record followed here is patent US5312831A, “Urethanes and ureas that induce cytokine production” (American Cyanamid Company, priority 1993, dated 1994).

The test system of experiment [1] is GCSF. Put plainly: Serum GCSF production in mice (NFS-60 bioassay). It is filed as in vivo, mouse. The note with it: for GCSF: 4 hours, 10 mice/group. Here is the method: Description of Biological Assays Interleukin 6(IL-6) assay for structure function analysis--Test compounds are dissolved in water and administered subcutaneously in 0.2 ml to deliver a dose of 0.1-10 mg/kg. The less soluble compounds are first dissolved in 100% ethanol and then brought to the appropriate concentration in water. Four hours post injection, the mice are bled and the serum is retrieved. The IL-6 dependent cell line 7TDl is used to assay serial dilutions of sera for IL-6 content. 7TDl cells (1×10^4) are placed in microtiter wells and incubated at 37° C. for 72 hours with standard recombinant mouse IL-6 or with dilutions of serum to be tested. Over the last 6 hours, the cells are pulsed with ^3 H-Tdr (μci). Cells are then harvested and the degree of proliferation determined by the uptake of ^3 H-Tdr as measured by liquid scintillation spectrometry. The concentration of IL-6 in serum is calculated from standard curves utilizing recombinant IL-6 from R&D Systems Inc. and are reported in units of IL-6 activity as defined by the manufacturer.
Granulocyte colony stimulating factor (GCSF) assay--A bioassay for GCSF is performed in an identical fashion to the IL-6 assay except that the GCSF dependent cell line NFS-60 is used in place of the IL-6 dependent 7TDI cell line.
Mice (10/group) are given a single subcutaneous injection of test compoun
and bled 4 hours later. GCSF levels in serum are determined by bioassay
using the GCSF dependent cell line NFS60.

The subject of experiment [2] is neutrophils. Put plainly: Oral dosing: neutrophil recovery in 5-FU treated mice. The format is in vivo, mouse. The note with it: for Neutrophils/cu. mm.: day 6 after 5-FU 150 mg/kg, 0 dose 178 ± 64. The method, then: Circulating Neutrophil Assay--Mice are treated with 5-FU (150 mg/kg) and beginning 24 hrs. later, treated daily with the test compound. Mice are bled daily by retroorbital puncture in heparinized capillary tubes. Circulating WBC counts are determined by Coulter counter. Blood smears are stained with Wright-Geimsa solution and the percentage circulating neutrophils determined by differential counting under a microscope.
5-Fluorouracil (5-FU) Induced Neutropenia In Mice--Mice are treated ip with 150 mg/kg of the chemotherapy agent 5-FU which induces a severe loss of neutrophils in the peripheral blood 5-6 days later. Twenty-four hrs. after the dose, treatment with the test compounds is initiated. The effect of the test compounds on recovery of neutrophil progenitor cells in the bone marrow is determined by the CFU-GM assay. The recovery of circulating neutrophils is followed by differential staining of the peripheral blood.
Groups of 5 mice are treated with 150 mg/kg of 5-FU. One day later, daily oral dosing with test compounds begins and continues for 10 days. […]

For the molecule `CCCCCCC(=O)N[C@@H](C(=O)O)[C@@H](C)OC(=O)N[C@@H](CCC[C@@H](N)C(=O)O)C(=O)N[C@H](C)C(=O)O` [Example 28, [R-(R*,R*)]-N-(R)-6-carboxy-N^2-[[2-carboxy-1-methyl-2-[(1-oxoheptyl)amino]ethoxy]carbonyl]-L-lysyl]-D-Alanine], the GCSF in experiment [1] (1.56 μg/kg single s.c.) came out at 442 ± 52 pg/mL; in experiment [1] (3.12 μg/kg single s.c.), 470 ± 59 pg/mL; in experiment [1] (6.25 μg/kg single s.c.) it was 644 ± 267 pg/mL; in experiment [1] (12.50 μg/kg single s.c.) it was 1342 ± 289 pg/mL; in experiment [1] (25.00 μg/kg single s.c.) it was 3352 ± 907 pg/mL; in experiment [1] (50.00 μg/kg single s.c.), 1249 ± 138 pg/mL. The “GCSF induction in the serum of mice (in words)” value in experiment [1] (injected mice) was “induce GCSF in the serum of injected mice”. The Neutrophils/cu. mm. was 81 ± 35 /cu. mm in experiment [2] (0.1 mg/kg daily oral), 765 ± 209 /cu. mm in experiment [2] (1 mg/kg daily oral) and 1391 ± 350 /cu. mm in experiment [2] (10 mg/kg daily oral). In addition, the “neutrophil recovery in 5-FU treated mice when given orally (in words)” value in experiment [2] (oral) is given as “active in accelerating neutrophil recovery”.
